Test results from PubChem BioAssay AID1645866 (Buhrlage Lab, Dana-Farber Cancer Institute and Novartis …, 2021).
The source made the active and inactive calls.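 How the source made its calls: active means in confirmatory dose-response testing, peak deubiquitinase inhibition of 30% or more; inactive means the rest.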

Molecular target: Ubiquitin carboxyl-terminal hydrolase 28 (Homo sapiens) (UniProt Q96RU2)
Test: Ubiquitin-specific peptidase 28 DUB inhibitors, biochemical concentration-dependence assay, validation of primary screening hits (AID 1645866)
Details: purified USP28, ubiquitin-rhodamine fluorescence, 30 min

Chain of Ubiquitin carboxyl-terminal hydrolase 28 (Homo sapiens) (Q96RU2 whole entry, looked up): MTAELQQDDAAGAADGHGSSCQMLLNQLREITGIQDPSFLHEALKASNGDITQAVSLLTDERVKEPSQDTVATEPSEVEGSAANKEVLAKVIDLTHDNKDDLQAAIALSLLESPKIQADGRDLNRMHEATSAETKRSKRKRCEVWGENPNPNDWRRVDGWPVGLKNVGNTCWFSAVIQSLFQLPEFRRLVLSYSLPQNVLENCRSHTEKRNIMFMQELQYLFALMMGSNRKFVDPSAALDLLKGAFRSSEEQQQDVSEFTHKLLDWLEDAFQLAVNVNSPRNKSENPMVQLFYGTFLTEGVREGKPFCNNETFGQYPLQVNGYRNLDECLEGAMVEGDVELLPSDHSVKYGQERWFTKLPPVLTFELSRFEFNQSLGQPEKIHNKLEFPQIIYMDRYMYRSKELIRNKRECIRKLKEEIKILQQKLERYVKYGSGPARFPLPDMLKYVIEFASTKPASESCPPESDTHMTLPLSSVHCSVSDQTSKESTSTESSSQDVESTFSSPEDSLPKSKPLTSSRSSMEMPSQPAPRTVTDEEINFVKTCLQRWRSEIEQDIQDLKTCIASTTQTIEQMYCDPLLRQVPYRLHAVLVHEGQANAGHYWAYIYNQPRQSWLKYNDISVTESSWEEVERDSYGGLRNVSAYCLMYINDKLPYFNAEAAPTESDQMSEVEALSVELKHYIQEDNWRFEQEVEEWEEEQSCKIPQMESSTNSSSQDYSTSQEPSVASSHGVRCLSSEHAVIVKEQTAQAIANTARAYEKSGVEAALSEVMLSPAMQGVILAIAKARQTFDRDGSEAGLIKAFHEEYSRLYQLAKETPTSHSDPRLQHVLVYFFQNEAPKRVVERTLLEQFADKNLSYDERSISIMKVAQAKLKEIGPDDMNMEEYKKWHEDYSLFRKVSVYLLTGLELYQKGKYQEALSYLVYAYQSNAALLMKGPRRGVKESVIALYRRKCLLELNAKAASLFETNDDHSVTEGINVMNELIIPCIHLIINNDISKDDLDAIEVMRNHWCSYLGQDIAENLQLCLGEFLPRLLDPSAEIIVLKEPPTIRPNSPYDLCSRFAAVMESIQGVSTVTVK

CCN1CCCC1CN(Cc1cc2cc(OC)ccc2[nH]c1=O)C(=O)NCc1ccccc1 (stereo unspecified)
IC50: > 50 µM (inactive)

COc1ccc(OC)c(NC(=O)c2ccc(-n3nnnc3SC)cc2)c1
IC50: 22.6 µM

Cc1nc(-c2cccc(NC(=O)c3ccccc3Cl)c2)no1
IC50: 16.6 µM

Cc1sc(-c2cccnc2)nc1OC(=O)c1ccc(Cl)c(Cl)c1
IC50: > 50 µM (inactive)

CCn1ccc2c(cc(C(=O)Nc3cccc(OC)c3)n2C)c1=O
IC50: 2.83 µM

O=C(c1ccc2ncccc2c1)N1CCC2(C1)Nc1cccnc1NC2=NC1CCCC1 (stereo unspecified)
IC50: > 50 µM (inactive)

Cc1cc(C(=O)Nc2ccc3nc(N4CCN(c5ncccn5)CC4)cc(C)c3c2)ccc1[N+](=O)[O-]
IC50: 14.2 µM

O=C(NC(Cc1ccccc1)c1nc2ccccc2[nH]1)C1CC1 (stereo unspecified)
IC50: > 50 µM (inactive)

CCc1ccc(C2c3c(oc4ccccc4c3=O)C(=O)N2c2nncs2)cc1 (stereo unspecified)
IC50: > 50 µM (inactive)

Cc1nn(CC(=O)NCc2ccccc2F)c2ccccc12
IC50: > 50 µM (inactive)

CC(C)c1cc(NCc2ccccc2)n2nc(-c3cccnc3)nc2n1
IC50: 16.9 µM

Cn1cc(-c2noc(Cc3cccc(C(F)(F)F)c3)n2)ccc1=O
IC50: 12.2 µM

COc1ccc(-c2nc(Cn3nnc(C(=O)Nc4ccc(C)c(C)c4)c3N)c(C)o2)cc1
IC50: 2.12 µM

COc1ccc(-c2cnnn2-c2ccc(NC(=O)c3c(F)cccc3F)cc2)cc1OC
IC50: > 50 µM (inactive)

CSc1ncc(C(=O)NC(C)c2ccccc2)c(-c2ccccc2)n1 (stereo unspecified)
IC50: 18.5 µM

O=C(Nc1ncc2c(n1)-c1ccccc1CC2)C1CC1
IC50: 17.6 µM

CNC(=O)C1CN(C(=O)c2ccc(OC)cc2)CC12CCCC2 (stereo unspecified)
IC50: > 50 µM (inactive)

O=C(Nc1ccccc1)c1cn(-c2cc(N3CCCC3)ncn2)cn1
IC50: > 50 µM (inactive)

CC1Cc2ccccc2N1C(=O)Cn1c(=O)cc(O)c2ccccc21 (stereo unspecified)
IC50: 18.8 µM

O=c1c(-c2nc(C3CC3)no2)cccn1Cc1c(F)cccc1Cl
IC50: 1.82 µM

COc1ccc(CCNC(=O)c2cc(C3CC3)nc3c2cnn3C(C)C)cc1
IC50: 3.47 µM

COc1ccc(C(=O)Nc2ccc(S(=O)(=O)N3CCCCC3)cc2)cc1
IC50: 17.4 µM

CCC(C)c1ccc(O[C@@H]2O[C@@H]3COC(c4ccccc4)O[C@H]3[C@H](O)[C@H]2NC(C)=O)cc1 (stereo partly specified)
IC50: 20.2 µM

CCCC(O)CCCCCCCc1cc(O)cc(O)c1C(=O)OC(CCC)CCCCCCCc1cc(O)cc(O)c1 (stereo unspecified)
IC50: 25.3 µM

O=C(O)Cc1ccc(Nc2nc3ccccc3n3nnnc23)cc1
IC50: > 50 µM (inactive)

COc1ccc(C)cc1NC(=O)Cc1csc(NC(=O)c2ccc(=O)[nH]c2)n1
IC50: 46.9 µM

O=C(c1cc(-c2ccncc2)n[nH]1)N1CCC(C(=O)N2CC=C(c3ccccc3)CC2)CC1
IC50: 24.3 µM

N#Cc1ccccc1OCc1csc(-c2ccccc2)n1
IC50: 5.97 µM

COc1cc(C)cc2c1C(=O)c1c(cc(O)c(Cl)c1O)C2=O
IC50: 1.48 µM

Cc1cc(O)cc2cc3c(c(O)c12)C(=O)CCC3O (stereo unspecified)
IC50: > 50 µM (inactive)

O=C(Nc1cccc(-c2noc(C3CCC3)n2)c1)C1CC(=O)N(c2ccccc2)C1 (stereo unspecified)
IC50: 18.8 µM

Cc1cc(C)c2nc3c(cc2c1)CN(Cc1ccco1)C(=O)O3
IC50: > 50 µM (inactive)

CC1CCN(S(=O)(=O)c2ccc3[nH]cc(C(=O)NCc4ccco4)c(=O)c3c2)CC1
IC50: > 50 µM (inactive)

CC(C)CC[C@H]1O[C@@H](CC(=O)O)Cc2cc3c(c(O)c21)C(=O)c1sc(=O)n(C)c1C3=O
IC50: 2.74 µM

Cc1ccc(-c2nc(-c3ccccc3)c(S(=O)(=O)CC(=O)Nc3ccc(C)c(C)c3)[nH]2)cc1
IC50: 42.3 µM

COc1ccc(OC)c(NC(=O)C2Oc3ccccc3NC2=O)c1 (stereo unspecified)
IC50: 8.5 µM

O=S(=O)(c1ccccc1Cl)N1CCN(c2ccc3nnc(-c4ccco4)n3n2)CC1
IC50: > 50 µM (inactive)

Cc1nnc(NC(=O)C2CCN(c3ccc(S(N)(=O)=O)cc3[N+](=O)[O-])CC2)o1
IC50: 11.1 µM

O=C(NCc1ccc(Cl)cc1)c1ccc(N2CCCS2(=O)=O)cc1
IC50: > 50 µM (inactive)

Cc1ccc2c(c1)N(C)C(=O)c1cc(NC(=O)c3ccc(F)cc3)ccc1O2
IC50: 4.21 µM

CCn1ccc2c(cc(C(=O)Nc3ccccc3F)n2C)c1=O
IC50: 15.2 µM

Cc1cc(C(=O)N2CCOC3(CC=CCN(CCc4ccccc4)C3=O)C2)n2nccc2n1 (stereo unspecified)
IC50: > 50 µM (inactive)

COc1ccc(C(=O)CSc2nnc(-c3cc4cccc(OC)c4o3)n2C)cc1OC
IC50: > 50 µM (inactive)

O=C(CC1C(=O)N(Cc2ccccc2)c2nc3ccccc3n21)NCCc1ccccc1 (stereo unspecified)
IC50: 15.9 µM

O=C(c1ccc(COc2cccc3ccccc23)o1)N1CCC(Cc2ccccc2)CC1
IC50: > 50 µM (inactive)

Cc1ccc(NC(=O)c2ccc(N3CCOCC3)nn2)cc1F
IC50: 45.6 µM

COc1ccc(NC(=O)c2cc(-c3cccnc3)n[nH]2)cc1Cl
IC50: 1.27 µM

Cc1cccc(N2C(=O)/C(=C\c3ccc4c(c3)OCCO4)c3ccccc3C2=O)c1
IC50: 19.2 µM

Cc1ccc(NC(=O)c2ccc(Nc3nnc(C)c4ccccc34)cc2)cc1
IC50: 6.02 µM

COc1cc(OC)cc(-n2c(=O)c3sccc3n(CC(=O)Nc3ccc(C)cc3)c2=O)c1
IC50: 6.98 µM

Cc1nnc(-c2nnc(NCc3ccc(Cl)cc3)c3ccccc23)o1
IC50: > 50 µM (inactive)

Cc1ccc(-c2nc(NC(=O)Nc3ccc(Cl)cc3)sc2C)cc1
IC50: 32.9 µM

Cc1nc2cccnc2n1C1CCN(C(=O)c2cc3cc(Cl)ccc3[nH]2)C1 (stereo unspecified)
IC50: 25.3 µM

CCn1cc(-c2nc(-c3ccccn3)no2)c(=O)c2cc(F)ccc21
IC50: 26.5 µM

COc1ccc(C(C(=O)NCc2ccccc2)N(C(=O)CCN2CCc3ccccc32)c2ccc(C)c(C)c2)cc1 (stereo unspecified)
IC50: > 50 µM (inactive)

CC1=C[C@@H](C)CC[C@H]2O[C@@H](C3=C(O)C(=O)C(C)=C4O[C@](O)(C=C43)[C@@H](C)C[C@H](C)C1)[C@H](C)[C@@H](O)[C@H]2C
IC50: 19.5 µM

CN1CCN(c2ccc3nc(-c4ccccc4)c(-c4ccccc4)nc3c2)CC1
IC50: > 50 µM (inactive)

CCOC(=O)c1ccc(S(=O)(=O)N2CCC(C(=O)OC(C)C(=O)Nc3cccc([N+](=O)[O-])c3)CC2)cc1 (stereo unspecified)
IC50: 9.35 µM

COc1ccc(C(=O)NCC(c2ccc3c(c2)CCCN3C)N2CCCC2)cc1 (stereo unspecified)
IC50: > 50 µM (inactive)

CCC1=C(c2ccc(C)cc2)S(=O)(=O)NC1=NCC(=O)NCc1ccccc1F
IC50: 33.2 µM

COc1ccccc1CNC(=O)c1ccccc1OCc1ccccc1Cl
IC50: > 50 µM (inactive)

Cc1ccc2c(=O)c3c([nH]c2c1C)CCN(CC(=O)NCc1ccccc1)C3
IC50: > 50 µM (inactive)

CCOC(=O)c1sc2c(c1C)c(=O)n(Cc1ccccc1)c(=O)n2CC(N)=O
IC50: 22.2 µM

COCCCn1c(C(=O)NCCc2ccccc2)cc2c(=O)n3cccc(C)c3nc21
IC50: 42.1 µM

CC1=C(C)C(N(c2ccccc2)c2ccccc2)N(CCC(C)C)C1=O (stereo unspecified)
IC50: 24.9 µM

O=[N+]([O-])c1ccc(NCc2ccc(-c3cccs3)s2)nc1
IC50: 2.19 µM

O=C(Cc1ccccc1F)N1CCC2(CC1)CC1(CO2)Nc2ccccc2-n2cccc21 (stereo unspecified)
IC50: > 50 µM (inactive)

O=C(Nc1ccc(N2CCOCC2)cc1)c1cc(=O)[nH]c2ccccc12
IC50: 25.4 µM

COc1cnc(CSc2ncccn2)cc1OCC(=O)Nc1cc(C)ccc1C
IC50: > 50 µM (inactive)

O=C(c1ccc(Cl)cc1)c1c[nH]cc1-c1c(F)cccc1Cl
IC50: 33.1 µM

O=S(=O)(c1ccccc1)N1CCN2Cc3ccccc3N(Cc3ccccc3)CC2C1 (stereo unspecified)
IC50: > 50 µM (inactive)

Cc1ccc2nc(CNC(=O)c3ccccc3-c3nc(-c4ccc(F)cc4)no3)[nH]c2c1
IC50: 39 µM

COc1ccccc1CNC(=O)CCCCn1c(=O)c2ccccc2n(Cc2ccccc2C#N)c1=O
IC50: 13 µM

COc1ccc(OC)c(-c2c(C#N)c(C)nc3c2N2CCC3CC2)c1
IC50: 1.8 µM

CN1CCN(c2ncnc3c2oc2ccc(Cl)cc23)CC1
IC50: > 50 µM (inactive)

COCCNC(=O)c1ccn(-c2ccc3ccc(-c4cnn(C)c4)cn23)n1
IC50: > 50 µM (inactive)
